Source: US20230255943A1, “MMP-9 AND MMP-12 INHIBITION FOR TREATING SPINAL CORD INJURY OR RELATED INJURY TO NEUROLOGICAL TISSUE” (The University of Birmingham, priority 2020, published 2023)
Entries after “also recorded” stand apart in the source; their conditions may differ. Counter-ions that a name gives are not always drawn.

Key:
[1] = tested on: LPS-stimulated primary microglia; test: LPS-induced cytokine production by primary microglia (ELISA); assay type: cell-based, mouse; settings: LPS 10 ng/ml, 24 h
Procedure: Primary mouse microglia from 6-8-week-old C57BL/6 mouse brains were prepared according to a previously described protocol (Moussaud S, Draheim H J. A new method to isolate microglia from adult mice and culture them for an extended period of time. J Neurosci Methods 2010; 187(2): 243-53). Briefly, the meninges of brains were dissected out, finely minced enzymatically digested using 20 units/ml Papain (all from Sigma). After incubation for 90 min at 37° C., the suspension was centrifuged at 200 g for 7 min and the pellet resuspended in 0.5 mg/ml DNase I (Roche, Manheim, Germany) and triturated with fire-polished Pasteur pipettes of decreasing diameters. The homogenate was then filtered through a 70 μm cell strainer (Beckton Dickinson, Watford, UK), and centrifuged through a Percoll (GE Healthcare, Amersham, UK) gradient. Finally, the cell suspension was resuspended in DMEM/F12 medium supplemented with 10% FBS (all from Invitrogen) and 5 ng/ml of granulocyte colony and macrophage stimulating factor (GM-CSF) (#415-ML, R&D Systems. Watford, UK), plated out in T75 cell culture flasks (Beckton Dickinson) precoated with poly-L-lysine, and maintained at 37° C. and 5% CO2 for approximately 2 weeks. When the cells become confluent, microglia detach and migrate to the medium-air interface, floating and proliferating. The supernatant of the flask was then collected without prior shaking to remove the microglia growing on a mixed glial culture base and centrifuged at 200 g for 7 min. The purity of microglia was determined from each flask by immunocytochemistry for CD11b and confirmed as 95% pure. Before each experiment, microglia were cultured in DMEM/F12 without GM-CSF for at least 3 d.
Microglia were used for all experiments with an in vitro age between 15-20 d in vitro (DIV) and were seeded on glass coverslips in 24-well plates at a density of 3×10^4 cells/well. Microglia were exposed to serum-free media for 24 h before exposing the cells to different concentrations of lipopolyscaccharide (LPS) in preliminary experiments to determine optimal concentrations required to maximally activate our primary microglial cultures. This was determined as 10 ng/ml. For the microglial activation assay, cells were exposed to serum-free medium for 24 h before being exposed to LPS, with or without different concentrations of AZD1236, GM6001, SD2590 and MMP-9 Inhibitor I (all used at 10-500 ng/ml) for a further 24 h. Cell culture supernatant was then collected, centrifuged to remove cell debris and subjected to ELISA to determine the concentrations of TNF-α, IL-1β and IL-6. Experiments were performed in triplicate wells and repeated on 3 independent occasions (n=9 wells/treatment).
TNF-α (#MTA00B), IL-1β (#MLBOOC) and IL-6 (#M6000B) were determined using commercially available kits from R&D Systems, following the manufacturer's instructions.

[2] = tested on: mice with DC crush injury; assay type: in vivo, mouse; settings: for number of CTB+ DC axons regenerating, comparison with other MMP inhibitors (FIG. 11): mouse, in vivo
[3] = tested on: mice with DC crush injury; test: Spinal cord water content (oedema) after DC crush injury in mice; assay type: in vivo, mouse; settings: for spinal cord water content, comparison of MMP inhibitors (FIG. 4) / spinal cord water content: 3 days after DC injury; for spinal cord water content, comparison of MMP inhibitors (FIG. 4): doses and routes of Table 1, vs DC+vehicle
Procedure: For oral delivery of AZD1236, n=6 adult male C57BL6 mice/group (Charles River, Margate, UK) were randomly allocated to either: (1), Sham (control; partial laminectomy but no DC crush injury); (2), DC crush injury+vehicle (partial laminectomy followed by DC crush injury and injection of vehicle); (3), DC crush injury+100 mg/kg AZD1236; (4), DC crush injury+200 mg/kg AZD1236; and (5), DC crush injury+300 mg/kg AZD1236. For intrathecal (it) delivery of AZD1236, adult male C57BL6 mice (25-30 g) (Charles River, Margate, UK) were randomly allocated to either: (1), Sham (control; partial laminectomy but no DC crush injury); (2), DC crush injury+vehicle (partial laminectomy followed by DC crush injury and injection of vehicle); (3), DC crush injury+2.5 mg/kg AZD1236; (4), DC crush injury+5 mg/kg AZD1236; and (5), DC crush injury+10 mg/kg AZD1236. For intrathecal delivery an indwelling atlanto-occipital intrathecal catheter was inserted into the intrathecal space, as described previously (F. A. Oladosu, B. P. Ciszek, S. C. O'Buckley, A. G. Nackley, Novel intrathecal and subcutaneous catheter delivery systems in the mouse. J Neurosci Methods 264, 119-128 (2016)). Briefly, with mice in the sternal recumbency a small incision was made at the nape of the neck followed by detachment of the muscles on either side of the external occipital crest to expose the A-O membrane. The membrane was incised and a 6 cm Alzet mouse intrathecal catheter (Alzet, Cupertino, Calif., USA) and polyurethane segments were gently guided 2.5 cm into the intrathecal space. The catheter was secured using 4-0 silk sutures (Oasis Medical, IL) and the exposed end of the catheter was sealed off with a stainless-steel plug and affixed to the upper back. Animals were injected immediately with vehicle or AZD1236 followed by a 10 μl PBS catheter flush. Injections were repeated every twice daily for the first 3 days after injury and drugs and vehicle reagents were delivered over 1 min time period using a Hamilton microlitre syringe (Hamilton Co, USA). Where specified intact animals with no surgical procedures were also used. All lesions were administered under 5% isofluorane induced inhalation anaesthesia, with 1.51/min O2. Pre- and post-injury analgesia was also provided.
DC crush injury was administered bilaterally at the T8 vertebral level as described previously (S. Surey, M. Berry, A. Logan, R. Bicknell, Z. Ahmed, Differential cavitation, angiogenesis and wound-healing responses in injured mouse and rat spinal cords. Neuroscience 275, 62-80 (2014); M. L. Read, S. Mir, R. Spice, R. J. Seabright, E. L. Suggate, Z. Ahmed, M. Berry, A. Logan, Profiling RNA interference (RNAi)-mediated toxicity in neural cultures for effective short interfering RNA design. J Gene Med 11, 523-534 (2009)). Briefly, calibrated watchmaker's forceps were separated by 0.5 mm and inserted through the dorsal cord meninges to a depth of 0.45 mm in mice and separated by 1 mm and inserted through the dorsal cord meninges to a depth of 1.0 mm in rats, and the DC were crushed for 3 seconds. AZD1236 or vehicle was administered twice daily by oral gavage or intrathecally, either immediately for the first 3 days or 24 hours after injury and treating twice daily until day 4 (i.e. 3 days of AZD1236 dosing). All experiments were performed with n=6 mice/group and repeated on at least 2-3 independent occasions (total=12-18 animals/group/test).
The lesion site+3 mm either side for mice and the lesion site+5 mm either side for the rat DC model were dissected out and the water content of the spinal cord (as a measure of oedema) was determined at 3 days after DC and CC SCI, as described previously (S. Li, C. H. Tator, Effects of MK801 on evoked potentials, spinal cord blood flow and cord edema in acute spinal cord injury in rats. Spinal Cord 37, 820-832 (1999)). Spinal cords containing the lesion site were weighed on aluminium foil, dried at 105° C. for 24 hr, and re-weighed. […]

| SMILES | TNF-α, IL-1β and IL-6 production by LPS-activated microglia ([1]; 10-500 ng/ml) | number of CTB+ DC axons regenerating, comparison with other MMP inhibitors (FIG. 11) [2] | spinal cord water content, comparison of MMP inhibitors (FIG. 4) [3] | TNF-α, IL-1β and IL-6 production by LPS-activated microglia ([1]; 100 ng/ml) | TNF-α, IL-1β and IL-6 production by LPS-activated microglia ([1]; 500 ng/ml) | CTB+ fibres regenerating through the lesion site, 24 h delayed treatment ([2]; 24 h delay vs immediate) | extension of CTB labelled axons from the lesion centre ([2]; oral) | CTB+ labeling intensity (percentage of CTB labelled axons) ([2]; oral, vs DC+Vehicle) | intrathecal dose required for same reduction of water content, as fraction of oral dose ([3]; intrathecal vs oral) | spinal cord water content ([3]; intrathecal, 5.0 and 10.0 mg/kg) | SCI-induced water content, 24-h delayed treatment ([3]; optimal doses, 24 h delay vs immediate) | spinal cord water content ([3]; oral, twice daily, 200 mg/kg and 300 mg/kg) |
| --- | --- | --- | --- | --- | --- | --- | --- | --- | --- | --- | --- | --- |
| CCN(CC)Cc1cc(C)c(N(Cc2ccccc2)S(=O)(=O)c2ccc(OC)cc2)c(C(=O)NO)c1 [MMP-9 Inhibitor I, reference compound] | marginal effects | only a marginal effect on axon regeneration | significantly reduced spinal cord water content |  |  |  |  |  |  |  |  |  |
| CNC(=O)[C@H](Cc1c[nH]c2ccccc12)NC(=O)[C@@H](CC(=O)NO)CC(C)C [GM6001, (2R)—N^4-Hydroxy-N^1-[(1S)-1-(1H-indol-3-ylmethyl)-2-(methylamino)-2-oxoethyl]-2-(2-methylpropyl)butanediamide, reference compound] | marginal effects | only a marginal effect on axon regeneration | significantly reduced spinal cord water content |  |  |  |  |  |  |  |  |  |
| COCCN1CCC(C(=O)NO)(S(=O)(=O)c2ccc(Oc3ccc(OC(F)(F)F)cc3)cc2)CC1 [SD2590, N-Hydroxy-1-(2-methoxyethyl)-4-[4-[4-(trifluoromethoxy)phenoxy]phenyl]sulfonyl]-4-piperidinecarboxamide hydrochloride, reference compound] | marginal effects | only a marginal effect on axon regeneration | significantly reduced spinal cord water content |  |  |  |  |  |  |  |  |  |
| C[C@]1(CS(=O)(=O)N2CC=C(C#Cc3cnc(C4CC4)nc3)CC2)NC(=O)NC1=O [AZD1236] | dose-dependent decrease | far superior at promoting DC axon regeneration | far more effective than any of these compounds; also recorded: almost completely ablating DC injury-induced rises | returning their concentrations to DMEM/F12-medium control levels | completely suppressed the production of these cytokines | promoted the same amount | at least 1000 μm | significantly enhanced percentage of CTB labelled axons | 1/40 | reduced to sham-treated levels | equally as effective as immediate delivery | reducing to sham-treated levels |
